Read-outs that look alike come from different tables or passages of the source.
Key:
[1] = test system: P. falciparum 3D7; experiment: in vitro growth inhibition of P. falciparum 3D7 over one asexual cycle; format: cell-based; details: Plasmodium falciparum
Source text: This nonlinear regression curve is representative of seven assays, each performed in triplicate.

[2] = test system: P. falciparum W2mef; experiment: microbe, parasite or virus in culture; format: cell-based; details: Plasmodium falciparum; for IC50: read-out: IC50 (mean ± 95% confidence interval)
[3] = test system: P. falciparum 7G8; experiment: in vitro growth inhibition of P. falciparum 7G8; format: cell-based; details: Plasmodium falciparum
[4] = cited from earlier work
[5] = primates, daily doses of 1,000 mg/kg for 9 months; cited from earlier work
[6] = test system: human Plasmodium strains; experiment: in vitro growth inhibition, all human Plasmodium strains tested; format: cell-based
[7] = patients with sickle cell disease; cited from earlier work
[8] = test system: P. falciparum 3D7; experiment: growth inhibition through the 48-hour asexual blood stage by microscopy and flow cytometry; format: cell-based, Plasmodium falciparum; details: P<0.008
Method: Parasitemia was determined by flow cytometry and confirmed with microscopy (not shown). […] Data presented are representative of three replicates.
Mean fluorescence intensity (WI), determined by flow cytometry, is shown as a measure of parasite viability. […] The data point for “No drug” at 48 h was gated for schizonts only (20% of infected cells) to eliminate signal from reinvaded ring-stage parasites. Data for other time points were not gated, as schizonts represented 5% of infected cells.
To determine senicapoc's activity through the 48-hour asexual blood stage of the parasite, growth inhibition of P. falciparum 3D7 was characterized throughout the cycle by microscopy and flow cytometry.

[9] = test system: P. knowlesi YH-1; experiment: in vitro growth inhibition of P. knowlesi YH-1 adapted for culture in human erythrocytes; format: cell-based; details: Plasmodium knowlesi, Erythrocyte
Source text: (§1) To identify a relationship between senicapoc activity and human erythrocytes, P. knowlesi H1 cultured in rhesus erythrocytes and P. knowlesi YH-1 adapted for culture in human erythrocytes were each treated with senicapoc. There was no difference between the senicapoc IC50s for H1 and YH-1 (P=0.14) (Table 1). Senicapoc was similarly effective against parasitized human and rhesus erythrocytes.

[10] = test system: P. yoelii; format: in vivo; details: IK-1-/- mice, 400 mg/kg twice daily, days 8 to 15
Method: IK-1^−/− and IK-1^+/+ mice were treated with senicapoc twice daily on postinoculation days 8 to 15 (highlighted area).
To test whether senicapoc targets the Gardos channel in malaria-infected erythrocytes, we assessed the ability of P. yoe-lii to grow in the presence and absence of the channel in vivo using a Gardos knockout (IK-1^−/−) mouse model (Shmukler B E, Hsu A, Alves J, Trudel M, Rust M B, Hubner C A, Rivera A, Alper S L. 2013. N-ethylmaleimide activates a Cl(−)-independent component of K(+) flux in mouse erythrocytes. Blood Cells Mol Dis 51:9-16 and Rifler M, Bobbala D, Koka S, Boini K M, Mahmud H, Kasinathan R S, Shumilina E, Amann K, Beranek G, Sausbier U, Ruth P, Sausbier M, Lang F, Huber S M. 2010. […] The inventors then assessed the effectiveness of senicapoc in the presence and absence of the channel in vivo. P. yoelii-infected IK-1^−/− and IK-1^+/+ mice were treated with senicapoc 400 mg/kg twice daily.

[11] = human and animal studies for SCD; cited from earlier work
[12] = patients with SCD; cited from earlier work
[13] = test system: P. knowlesi H1; experiment: in vitro growth inhibition of P. knowlesi H1 cultured in rhesus erythrocytes; format: cell-based; details: Plasmodium knowlesi, Erythrocyte, in Macaca mulatta
Source text: as §1

[14] = canines; cited from earlier work
[15] = test system: P. yoelii 17X-NL; experiment: in vivo efficacy against blood-stage parasites in infected C57BL/6 mice
Method: C57BL/6 mice infected with P. yoelii 17X-NL were treated by gavage with vehicle or senicapoc 400 or 800 mg/kg daily from days 2 to 10 post-infection (highlighted area) to mimic a preventive therapy.
FIG. 7 is a line graph showing senicapoc suppressed parasite growth in an in vivo murine model following established infection. C57BL/6 mice infected with P. yoelii 17X-NL were treated with vehicle or senicapoc 400 mg/kg twice daily from day 8 to day 15 postinfection (highlighted area) to mimic treatment of an active infection.
To establish in vivo efficacy against blood-stage parasites, C57BL/6 mice infected with P. yoelii 17X-NL (nonlethal strain) were treated with vehicle or senicapoc. […] Parasitemia increased after the drug was stopped (FIG. 6).

[16] = P. falciparum 3D7, read-out: IC50 (mean ± 95% confidence interval)
[17] = P. falciparum 7G8, Res CQ, read-out: IC50 (mean ± 95% confidence interval)
[18] = read-out: IC50 (mean ± 95% confidence interval)
[19] = read-out: IC90 (mean ± 95% confidence interval)

## CCN(CC)CCCC(C)Nc1ccnc2cc(Cl)ccc12 (stereo not drawn) [CQ, chloroquine]
[1]; 3D7, read-out: IC50 (mean ± 95% confidence interval)
  IC50: 0.0156 ± 0.00331 µM
[2]
  IC50: 0.316 ± 0.135 µM
[3]; 7G8, read-out: IC50 (mean ± 95% confidence interval)
  IC50: 0.0979 ± 0.0204 µM

## C[C@H]1[C@@H](O)O[C@@H]2O[C@@]3(C)CC[C@H]4[C@H](C)CC[C@@H]1[C@@]24OO3 [DHA, dihydroartemisinin]
[1]; [16]
  IC50: 0.00273 ± 0.00155 µM
[2]
  IC50: 0.00516 ± 0.00428 µM
[3]; [17]
  IC50: 0.00165 ± 0.00124 µM

## OC(c1cc(C(F)(F)F)nc2c(C(F)(F)F)cccc12)C1CCCCN1 (stereo not drawn) [MQ, mefloquine]
[1]; [16]
  IC50: 0.0101 ± 0.00783 µM
[2]
  IC50: 0.0267 ± 0.0155 µM
[3]; [17]
  IC50: 0.00363 ± 0.00058 µM

## NC(=O)C(c1ccccc1)(c1ccc(F)cc1)c1ccc(F)cc1 [senicapoc, 2,2-bis(4-fluorophenyl)-2-phenylacetamide]
[4]
  protein binding: highly protein bound
[5]
  tolerability: well tolerated
[6]
  IC90 higher than the IC50: < 2 fold
[7]
  peak concentrations achieved in human trials: 337 nM
[8]; at 36 h, treated cultures
  Nucleic acid content measured by mean fluorescence intensity (MFI): weaker
[8]; by 48 h postinvasion, treated cultures compared to control
  Parasitemia measured by flow cytometry: reduced
[9]; [18]
  IC50: 11 ± 1.38 µM
[9]; [19]
  IC90: 37.4 ± 1.19 µM
[10]
  activity against P. yoelii: active
[11]
  tolerability: well tolerated
[1]; [16]
  IC50: 6.74 ± 0.25 µM
[1]; P. falciparum 3D7, read-out: IC90 (mean ± 95% confidence interval)
  IC90: 10.2 ± 2.07 µM
[1]; blood-stage P. falciparum 3D7, FIG. 1, read-out: IC50
  IC50: 6.7 µM
[12]
  frequency of vasoocclusive pain episodes: failed to modify
  physiological disease markers: improved
[2]
  IC50: 9.24 ± 3.13 µM
[2]; [19]
  IC90: 12.3 ± 1.82 µM
[13]; [18]
  IC50: 17.5 ± 6.74 µM
[13]; [19]
  IC90: 31.4 ± 11.8 µM
[14]
  serum concentrations at which cardiotoxicity developed: exceeded 18 M
[3]; [17]
  IC50: 10.9 ± 2.3 µM
[3]; P. falciparum 7G8, Res CQ, read-out: IC90 (mean ± 95% confidence interval)
  IC90: 22.3 ± 9.52 µM
[15]; prophylaxis on postinoculation days 2 to 10, by day 10, vehicle 12%, P=0.04
  parasitemia: 4.3%
[15]; treatment 400 mg/kg twice daily on postinoculation days 8 to 15, beyond day 13, not statistically significant (P=0.058)
  parasitemia: lower parasitemia
